Like-named read-outs stand apart in the source and are kept apart here.
Columns and labels:
[1] = Measurement of blood pressure in conscious rats by radio telemetry; assay type: in vivo, rat
Procedure: Blood pressure was measured using the Data Sciences radio-telemetry equipment (Data Sciences International, Saint Paul, Minn., USA). This provides a means of measuring the blood pressure (BP), heart rate and activity of a conscious unrestrained rat remotely. The measurements obtained using this system are free from the stresses induced by surgery and restraint. The system comprises a pressure transducer (TA11PA-C40) (the ‘implant’) implanted in the abdomen of a rat which transmits a radio signal indicating the pressure in the aorta of the animal. The signal is detected by a receiver RA1010) placed under the plastic cage which houses the animal.
Rats were anaesthetised with “Fluothane™” inhalation anaesthetic. The abdomen of the rat was shaved and the skin coated with a topical disinfectant. […]
Blood pressure data was recorded from each animal every 10 minutes throughout the study. […] This average day time blood pressure measurement for each rat was calculated over a 4 day period immediately prior to the commencement of compound dosing.
For the next 4 days (i.e. days 11 to 14 of compound dosing) the rats were dosed with the ACE inhibitor captopril at 30 mg/kg p.o. once daily in addition to the quinazoline compound. The average blood pressure of each rat was calculated daily and the difference between the daily calculated pressure and the starting pressure was expressed.

[2] = anaesthetised rats, 15 μg/kg bFGF; cited from earlier work
[3] = conscious rats, VEGF 250 μg/kg; cited from earlier work
coronary arteries = settings: dog, in vitro; cited from earlier work

For `COc1cc2c(Nc3ccc(Br)cc3F)ncnc2cc1OCC1CCN(C)CC1` [4-(4-bromo-2-fluoroanilino)-6-methoxy-7-(1-methylpiperidin-4-ylmethoxy)quinazoline], the “effect on the diastolic blood pressure in rats” value ([1]; conscious male wistar rats, 12.5 mg/kg p.o. once daily for 10 days, 3 dosed rats and a control rat (FIG. 1)) was “increase in blood pressure”.

For `C[C@H](CS)C(=O)N1CCC[C@H]1C(=O)O` [captopril, reference compound], the “effect of addition of ACE inhibitor on the increase in blood pressure caused by the VEGF receptor tyrosine kinase inhibitor” value ([1]; captopril 30 mg/kg p.o. once daily on days 11 to 14 in addition to the quinazoline compound 12.5 mg/kg p.o.) was “reversed”.

For “bFGF: basic fibroblast growth factor, polypeptide with endothelial cell growth promoting activity”, the “time to return to normal blood pressure” value [2] is listed as no more than 30 min.

In the case of VEGF, the “time to return to normal blood pressure” value [3] is listed as no more than 20 min and the “effect on coronary arteries” value (coronary arteries) is listed as “dilate coronary arteries”.
